{"source": "paper PMC4597613", "about": "“Polyhedra structures and the evolution of the insect viruses” (Journal of Structural Biology, 2015)", "key": {"CPV18 polyhedrin": {"target": "CPV18 polyhedrin (Operophtera brumata cypovirus 18, UniProt Q30C70)", "assay": "X-ray crystal structure of polyhedra, […] A", "type": "binding", "conditions": "nucleotide trapped in crystal from Sf9 cells, purine cluster"}, "CPV15 polyhedrin": {"target": "CPV15 polyhedrin (Trichoplusia ni cypovirus 15, UniProt Q9ELS6)", "conditions": "nucleotide trapped in crystal from Sf9 cells; two ATPs in purine cluster site, one on V3 and V2c, the other at the 2-fold axis"}, "CPV20 polyhedrin": {"target": "CPV20 polyhedrin (Simulium ubiquitum cypovirus, UniProt Q0MX25)", "assay": "X-ray crystal structure of polyhedra, […] A", "type": "binding", "conditions": "nucleotide trapped in crystal from Sf9 cells; pyrimidine region in trimer interface; not well ordered, identity inferred from space and hydrogen bonding"}}}
{"smiles": "Nc1nc2c(ncn2[C@@H]2O[C@H](COP(=O)(O)OP(=O)(O)OP(=O)(O)O)[C@@H](O)[C@H]2O)c(=O)[nH]1", "note": "[GTP]", "values": [{"measurement": "X-ray crystal structure of polyhedra, 1.48 A", "setting": "CPV18 polyhedrin; V2c and V1", "result": "GTP hydrogen bonds with V2c and V1"}]}
{"smiles": "Nc1ncnc2c1ncn2[C@@H]1O[C@H](COP(=O)(O)OP(=O)(O)OP(=O)(O)O)[C@@H](O)[C@H]1O", "note": "[ATP]", "values": [{"measurement": "X-ray crystal structure of polyhedra, 1.48 A", "setting": "CPV18 polyhedrin; V4 regions of two chains, H154 to phosphates", "result": "ATP is supported by two V4 regions from different polypeptide chains"}, {"measurement": "X-ray crystal structure of polyhedra, 1.82 A", "setting": "CPV15 polyhedrin", "result": "leaving space for two ATPs in different conformations to CPV1"}]}
{"smiles": "O=c1ccn([C@@H]2O[C@H](COP(=O)(O)OP(=O)(O)OP(=O)(O)O)[C@@H](O)[C@H]2O)c(=O)[nH]1", "note": "[UTP]", "values": [{"measurement": "X-ray crystal structure of polyhedra, 1.83 A", "setting": "CPV20 polyhedrin", "result": "The pyridine in CPV20 is not well ordered, but can be identified as UTP"}]}
